# Patent publication US11945822B2, “Pyrazolo-triazine and/or pyrazolo-pxrimidine derivatives as selective inhibitor of cyclin dependent kinase” (QURIENT CO., LTD., priority 2018, dated 2024)
# Biological target: T1, CDK5/p25 (Homo sapiens, UniProt Q00535)
# T1 construct: purchased Invitrogen PR8543B
# Test: Enzymatic assay for CDK5 (FRET based LANCE Ultra kinase assay)
# Assay type: biochemical
# Conditions: read-out: CDK5 enzymatic activity (IC50 range)
# How it was run: (§1)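 LANCE Ultra TR-FRET: ULight-MBP peptide (68 nM) with ATP at Km, […], 60 min at 23° C. EDTA plus Eu-anti-phospho-MBP added, another 60 min, then 665/615 nm emission read. Compounds tested as 8-dose 4-fold DMSO dilutions.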
# T1 sequence (Q00535 whole entry): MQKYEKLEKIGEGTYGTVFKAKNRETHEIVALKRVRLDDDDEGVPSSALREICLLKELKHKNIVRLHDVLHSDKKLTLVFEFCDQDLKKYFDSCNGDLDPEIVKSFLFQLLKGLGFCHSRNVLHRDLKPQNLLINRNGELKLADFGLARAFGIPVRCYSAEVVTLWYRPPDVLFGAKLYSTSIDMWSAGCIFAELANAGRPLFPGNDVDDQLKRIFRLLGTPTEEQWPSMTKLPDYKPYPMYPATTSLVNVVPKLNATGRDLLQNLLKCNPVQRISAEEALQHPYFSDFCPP
# T1 sequence (Q15078 99-307 partner limits assumed): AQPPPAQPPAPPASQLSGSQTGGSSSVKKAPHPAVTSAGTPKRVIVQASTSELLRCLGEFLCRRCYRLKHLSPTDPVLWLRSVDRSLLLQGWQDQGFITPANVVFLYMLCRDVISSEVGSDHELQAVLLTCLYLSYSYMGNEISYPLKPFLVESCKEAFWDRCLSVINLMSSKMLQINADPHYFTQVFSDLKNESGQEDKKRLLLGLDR
row,IC50,SMILES
1,< 0.1 µM,CC(C)c1cnn2c(NCc3ccccc3-c3cc4cccc(NC(=O)C5CC5)c4[nH]3)nc(N3CCC(N)CC3)nc12 [Compound 144]
2,0.1 to 1 µM,CC(C)c1cnn2c(NCc3ccccc3-c3ccc4ccccc4n3)nc(N3CCC(N)CC3)nc12 [Compound 48]
3,> 1 µM,CC(C)c1cnn2c(NCc3ccccc3-c3ccc4ccccc4n3)nc(N3CCC(O)(CN)CC3)nc12 [Compound 219]
4,> 1 µM,CC(C)c1cnn2c(N[C@@H](C)c3ccccc3-n3cc4ccccc4n3)nc(N3CCC(N)CC3)nc12 [Compound 183]

# Biological target: T2, CDK1/Cyclin B (Homo sapiens, UniProt P06493)
# T2 construct: purchased Invitrogen PR4768C
# T2 sequence (P06493 whole entry): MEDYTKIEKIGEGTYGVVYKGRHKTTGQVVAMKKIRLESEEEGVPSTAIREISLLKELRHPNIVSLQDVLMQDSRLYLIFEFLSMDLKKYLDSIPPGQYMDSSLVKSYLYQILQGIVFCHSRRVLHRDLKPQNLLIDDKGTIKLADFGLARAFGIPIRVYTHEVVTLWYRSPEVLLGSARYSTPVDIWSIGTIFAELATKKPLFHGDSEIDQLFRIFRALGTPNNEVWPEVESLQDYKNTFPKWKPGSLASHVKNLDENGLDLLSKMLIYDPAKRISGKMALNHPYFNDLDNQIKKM
# T2 sequence (P14635 whole entry partner): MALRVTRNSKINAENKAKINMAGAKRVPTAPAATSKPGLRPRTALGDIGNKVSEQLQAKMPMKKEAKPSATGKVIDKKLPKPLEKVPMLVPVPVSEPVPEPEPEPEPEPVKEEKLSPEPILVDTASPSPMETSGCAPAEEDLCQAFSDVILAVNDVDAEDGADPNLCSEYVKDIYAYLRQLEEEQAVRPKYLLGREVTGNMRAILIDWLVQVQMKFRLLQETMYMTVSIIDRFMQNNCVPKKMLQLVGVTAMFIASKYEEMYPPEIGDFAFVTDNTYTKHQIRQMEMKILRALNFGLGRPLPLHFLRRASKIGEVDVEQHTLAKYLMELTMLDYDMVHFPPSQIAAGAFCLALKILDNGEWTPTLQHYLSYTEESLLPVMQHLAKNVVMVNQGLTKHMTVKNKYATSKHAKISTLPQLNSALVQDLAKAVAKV
# Test: Enzymatic assay for CDK1 (FRET based LANCE Ultra kinase assay)
# Assay type: biochemical
# Conditions: read-out: CDK1 enzymatic activity (IC50 range)
# How it was run: as §1
row,IC50,SMILES
1,0.1 to 1 µM,CC(C)c1cnn2c(NCc3ccccc3-c3cc4cccc(NC(=O)C5CC5)c4[nH]3)nc(N3CCC(N)CC3)nc12 [Compound 144]
2,> 1 µM,CC(C)c1cnn2c(NCc3ccccc3-c3ccc4ccccc4n3)nc(N3CCC(N)CC3)nc12 [Compound 48]
3,> 1 µM,CC(C)c1cnn2c(NCc3ccccc3-c3ccc4ccccc4n3)nc(N3CCC(O)(CN)CC3)nc12 [Compound 219]
4,> 1 µM,CC(C)c1cnn2c(N[C@@H](C)c3ccccc3-n3cc4ccccc4n3)nc(N3CCC(N)CC3)nc12 [Compound 183]

# Test system: A2780
# Test: Cellular A2780 viability assay (CellTiter-Glo, 72 hours)
# Assay type: cell-based
# Conditions: Homo sapiens
# How it was run: (§2)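 Cells seeded at 1×10^4/well (MM.1S), 5×10^3 (OVCAR-3) or 1×10^3 (A2780), grown in RPMI-1640 with 10% FBS. After 24 h, compound added at 0.0015–10 uM, final DMSO below 0.1%, for 72 h at 37° C. Viability read by CellTiter-Glo luminescence in duplicate, with curve fitting.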
row,IC50,SMILES
1,≤ 1 µM,CC(C)c1cnn2c(NCc3ccccc3-c3cc4cccc(NC(=O)C5CC5)c4[nH]3)nc(N3CCC(N)CC3)nc12 [Compound 144]
2,≤ 1 µM,CC(C)c1cnn2c(NCc3ccccc3-c3ccc4ccccc4n3)nc(N3CCC(N)CC3)nc12 [Compound 48]
3,≤ 1 µM,CC(C)c1cnn2c(NCc3ccccc3-c3ccc4ccccc4n3)nc(N3CCC(O)(CN)CC3)nc12 [Compound 219]
4,≤ 1 µM,CC(C)c1cnn2c(N[C@@H](C)c3ccccc3-n3cc4ccccc4n3)nc(N3CCC(N)CC3)nc12 [Compound 183]

# Test system: OVCAR-3
# Test: Cellular OVCAR-3 viability assay (CellTiter-Glo, 72 hours)
# Assay type: cell-based
# Conditions: Homo sapiens
# Text: Human T-cell acute lymphoblastic leukemia cell line, MOLT-4 (ATCC, Cat #CRL-1582), Human multiple myeloma cell line, RPMI-8226 (Invitrogen, Cat #22400-089) and MM.1S (ATCC, Cat #CRL-2974), NSCLC (Non-small cell lung cancer) cell line H460 (ATCC, Cat #HTB-177), Human colon colorectal carcinoma cell line HCT116 (ATCC, Cat #CCL-247), Human acute monocytic leukemia cell line MV4-11 (ATCC, Cat #CRL-9591), OVCAR-3 (ATCC, Cat #HTB-161) and A2780 (ECACC, Cat #93112519) were obtained from ATCC. Cells were grown in RPMI-1640 media (Invitrogen, Cat #22400-089) supplemented with 10% FBS (Invitrogen, Cat #10099141) and 1% penicillin/streptomycin (Invitrogen, Cat #15070063) and cultured at 37° C., 5% CO2 in a humidified chamber. All cell lines were routinely tested for mycoplasma.
# The effect of the CDK7 inhibitor to inhibit the growth of target cancer cells was evaluated through the 72 hours time period of viability assay. Briefly, the candidate cell line ware plated in 96 well plate at the following density of cells respectively. 1×10^4 cells/well for MOLT-4, RPMI-8226, MV4-11 and MM.1S, 5×10^3 for H460, HCT116 and OVCAR-3 and IX 10^3 for A2780. After 24 hours, the cells were treated with various concentrations of the compound (ranging from 0.0015 uM to 10 uM). DMSO solvent without compound served as a control and final DMSO concentration less than 0.1%. After 72 hours of incubation at 37° C., 5% CO2 incubator, cells were analyzed for the viability using the CellTiter-Glo Luminescent Cell Viability Assay (Promega, Cat #G7570). All viability assays were performed in duplicate and Luminescence was read using an Envision (Perkin Elmer, USA). Data was analyzed using XLfit software.
row,IC50,SMILES
1,1 to 10 µM,CC(C)c1cnn2c(NCc3ccccc3-c3cc4cccc(NC(=O)C5CC5)c4[nH]3)nc(N3CCC(N)CC3)nc12 [Compound 144]
2,1 to 10 µM,CC(C)c1cnn2c(NCc3ccccc3-c3ccc4ccccc4n3)nc(N3CCC(N)CC3)nc12 [Compound 48]
3,1 to 10 µM,CC(C)c1cnn2c(NCc3ccccc3-c3ccc4ccccc4n3)nc(N3CCC(O)(CN)CC3)nc12 [Compound 219]
4,1 to 10 µM,CC(C)c1cnn2c(N[C@@H](C)c3ccccc3-n3cc4ccccc4n3)nc(N3CCC(N)CC3)nc12 [Compound 183]

# Test system: H460
# Test: Cellular H460 viability assay (CellTiter-Glo, 72 hours)
# Assay type: cell-based
# Conditions: Homo sapiens, NCI-H460
# How it was run: (§3)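 72 h treatment, 37 °C, 5% CO2; DMSO ctrl, final <0.1%; CellTiter-Glo luminescence; n=2.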
row,IC50,SMILES
1,< 1 µM,CC(C)c1cnn2c(NCc3ccccc3-c3cc4cccc(NC(=O)C5CC5)c4[nH]3)nc(N3CCC(N)CC3)nc12 [Compound 144]
2,< 1 µM,CC(C)c1cnn2c(NCc3ccccc3-c3ccc4ccccc4n3)nc(N3CCC(N)CC3)nc12 [Compound 48]
3,< 1 µM,CC(C)c1cnn2c(NCc3ccccc3-c3ccc4ccccc4n3)nc(N3CCC(O)(CN)CC3)nc12 [Compound 219]
4,< 1 µM,CC(C)c1cnn2c(N[C@@H](C)c3ccccc3-n3cc4ccccc4n3)nc(N3CCC(N)CC3)nc12 [Compound 183]

# Biological target: T3, CDK7/Cyclin H/MNAT1 (Homo sapiens, UniProt P50613)
# T3 construct: purchased Invitrogen PR6749B
# T3 sequence (P50613 whole entry): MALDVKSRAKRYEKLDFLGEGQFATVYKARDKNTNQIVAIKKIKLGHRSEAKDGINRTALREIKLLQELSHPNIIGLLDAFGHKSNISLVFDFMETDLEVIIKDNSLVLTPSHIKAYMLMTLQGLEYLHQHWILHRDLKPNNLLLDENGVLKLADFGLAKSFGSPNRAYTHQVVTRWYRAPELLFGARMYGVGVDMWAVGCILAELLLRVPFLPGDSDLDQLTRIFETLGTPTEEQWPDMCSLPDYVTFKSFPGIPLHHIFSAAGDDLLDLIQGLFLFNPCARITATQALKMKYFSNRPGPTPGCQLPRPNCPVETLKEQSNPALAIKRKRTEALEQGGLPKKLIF
# T3 sequence (P51946 whole entry partner): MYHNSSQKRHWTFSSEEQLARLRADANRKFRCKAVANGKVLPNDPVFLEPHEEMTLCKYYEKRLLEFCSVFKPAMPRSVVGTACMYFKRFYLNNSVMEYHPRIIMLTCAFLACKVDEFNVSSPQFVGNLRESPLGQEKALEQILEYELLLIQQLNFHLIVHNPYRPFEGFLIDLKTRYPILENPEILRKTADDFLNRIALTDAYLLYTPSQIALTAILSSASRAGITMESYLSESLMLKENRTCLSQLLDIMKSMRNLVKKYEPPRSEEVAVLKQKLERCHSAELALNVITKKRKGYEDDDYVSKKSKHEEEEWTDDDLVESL
# T3 sequence (P51948 whole entry partner): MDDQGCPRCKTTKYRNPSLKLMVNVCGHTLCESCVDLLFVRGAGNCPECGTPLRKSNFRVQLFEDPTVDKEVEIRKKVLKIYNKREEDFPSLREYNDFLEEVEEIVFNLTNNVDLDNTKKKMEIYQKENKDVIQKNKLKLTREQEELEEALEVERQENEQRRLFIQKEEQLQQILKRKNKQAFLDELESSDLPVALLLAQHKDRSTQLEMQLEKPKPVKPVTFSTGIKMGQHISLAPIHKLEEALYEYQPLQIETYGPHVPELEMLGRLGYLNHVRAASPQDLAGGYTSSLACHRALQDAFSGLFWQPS
# Test: Enzymatic assay for CDK7 (FRET based LANCE Ultra kinase assay)
# Assay type: biochemical
# Conditions: CDK7 over CDK1
# How it was run: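 LANCE Ultra TR-FRET kinase assay using a ULight-labeled peptide substrate and a Eu-labeled anti-phospho antibody, with ATP at its Km. Purified CDK/cyclin complex was added to compound after brief centrifugation.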
row,CDK1/CDK7: Selectivity of CDK7 inhibition over CDK1 inhibition,SMILES
1,A (A=greater than 200 fold),CC(C)c1cnn2c(NCc3ccccc3-c3ccc4ccccc4n3)nc(N3CCC(N)CC3)nc12 [Compound 48]
2,A (A=greater than 200 fold),CC(C)c1cnn2c(NCc3ccccc3-c3ccc4ccccc4n3)nc(N3CCC(O)(CN)CC3)nc12 [Compound 219]
3,A (A=greater than 200 fold),CC(C)c1cnn2c(N[C@@H](C)c3ccccc3-n3cc4ccccc4n3)nc(N3CCC(N)CC3)nc12 [Compound 183]

row,SMILES,CDK1/CDK7: Selectivity of CDK7 inhibition over CDK1 inhibition
1,CC(C)c1cnn2c(NCc3ccccc3-c3cc4cccc(NC(=O)C5CC5)c4[nH]3)nc(N3CCC(N)CC3)nc12 [Compound 144],"B (B=less than 200 fold, but greater than 20 fold)"

# Same assay, conditions: CDK7 over CDK2
row,CDK2/CDK7: Selectivity of CDK7 inhibition over CDK2 inhibition,SMILES
1,A (A=greater than 200 fold),CC(C)c1cnn2c(NCc3ccccc3-c3ccc4ccccc4n3)nc(N3CCC(N)CC3)nc12 [Compound 48]
2,A (A=greater than 200 fold),CC(C)c1cnn2c(NCc3ccccc3-c3ccc4ccccc4n3)nc(N3CCC(O)(CN)CC3)nc12 [Compound 219]
3,A (A=greater than 200 fold),CC(C)c1cnn2c(N[C@@H](C)c3ccccc3-n3cc4ccccc4n3)nc(N3CCC(N)CC3)nc12 [Compound 183]

row,SMILES,CDK2/CDK7: Selectivity of CDK7 inhibition over CDK2 inhibition
1,CC(C)c1cnn2c(NCc3ccccc3-c3cc4cccc(NC(=O)C5CC5)c4[nH]3)nc(N3CCC(N)CC3)nc12 [Compound 144],"B (B=less than 200 fold, but greater than 20 fold)"

# Same assay, conditions: CDK7 over CDK5
row,CDK5/CDK7: Selectivity of CDK7 inhibition over CDK5 inhibition,SMILES
1,C (C=less than 20 fold),CC(C)c1cnn2c(NCc3ccccc3-c3cc4cccc(NC(=O)C5CC5)c4[nH]3)nc(N3CCC(N)CC3)nc12 [Compound 144]
2,A (A=greater than 200 fold),CC(C)c1cnn2c(NCc3ccccc3-c3ccc4ccccc4n3)nc(N3CCC(O)(CN)CC3)nc12 [Compound 219]
3,A (A=greater than 200 fold),CC(C)c1cnn2c(N[C@@H](C)c3ccccc3-n3cc4ccccc4n3)nc(N3CCC(N)CC3)nc12 [Compound 183]

row,SMILES,CDK5/CDK7: Selectivity of CDK7 inhibition over CDK5 inhibition
1,CC(C)c1cnn2c(NCc3ccccc3-c3ccc4ccccc4n3)nc(N3CCC(N)CC3)nc12 [Compound 48],"B (B=less than 200 fold, but greater than 20 fold)"

# Same assay, conditions: read-out: CDK7 enzymatic activity (IC50 range)
row,IC50,SMILES
1,< 0.1 µM,CC(C)c1cnn2c(NCc3ccccc3-c3cc4cccc(NC(=O)C5CC5)c4[nH]3)nc(N3CCC(N)CC3)nc12 [Compound 144]
2,< 0.1 µM,CC(C)c1cnn2c(NCc3ccccc3-c3ccc4ccccc4n3)nc(N3CCC(N)CC3)nc12 [Compound 48]
3,< 0.1 µM,CC(C)c1cnn2c(NCc3ccccc3-c3ccc4ccccc4n3)nc(N3CCC(O)(CN)CC3)nc12 [Compound 219]
4,< 0.1 µM,CC(C)c1cnn2c(N[C@@H](C)c3ccccc3-n3cc4ccccc4n3)nc(N3CCC(N)CC3)nc12 [Compound 183]

# Test system: MV4-11
# Test: Cellular MV4-11 viability assay (CellTiter-Glo, 72 hours)
# Assay type: cell-based
# Conditions: Homo sapiens
# How it was run: as §3
row,IC50,SMILES
1,< 1 µM,CC(C)c1cnn2c(NCc3ccccc3-c3cc4cccc(NC(=O)C5CC5)c4[nH]3)nc(N3CCC(N)CC3)nc12 [Compound 144]
2,< 1 µM,CC(C)c1cnn2c(NCc3ccccc3-c3ccc4ccccc4n3)nc(N3CCC(N)CC3)nc12 [Compound 48]
3,< 1 µM,CC(C)c1cnn2c(NCc3ccccc3-c3ccc4ccccc4n3)nc(N3CCC(O)(CN)CC3)nc12 [Compound 219]
4,< 1 µM,CC(C)c1cnn2c(N[C@@H](C)c3ccccc3-n3cc4ccccc4n3)nc(N3CCC(N)CC3)nc12 [Compound 183]

# Test system: MOLT-4
# Test: Cellular MOLT-4 viability assay (CellTiter-Glo, 72 hours)
# Assay type: cell-based
# Conditions: Homo sapiens, MOLT4 viability assay
# How it was run: as §3
row,IC50,SMILES
1,1 to 10 µM,CC(C)c1cnn2c(NCc3ccccc3-c3ccc4ccccc4n3)nc(N3CCC(N)CC3)nc12 [Compound 48]

# Test system: MM.1S
# Test: Cellular MM.1S viability assay (CellTiter-Glo, 72 hours)
# Assay type: cell-based
# Conditions: Homo sapiens, MM1.S
# How it was run: as §2
row,IC50,SMILES
1,≤ 1 µM,CC(C)c1cnn2c(NCc3ccccc3-c3ccc4ccccc4n3)nc(N3CCC(N)CC3)nc12 [Compound 48]
2,≤ 1 µM,CC(C)c1cnn2c(N[C@@H](C)c3ccccc3-n3cc4ccccc4n3)nc(N3CCC(N)CC3)nc12 [Compound 183]

# Test system: RPMI-8226
# Test: Cellular RPMI-8226 viability assay (CellTiter-Glo, 72 hours)
# Assay type: cell-based
# Conditions: Homo sapiens
# How it was run: as §3
row,IC50,SMILES
1,< 1 µM,CC(C)c1cnn2c(NCc3ccccc3-c3cc4cccc(NC(=O)C5CC5)c4[nH]3)nc(N3CCC(N)CC3)nc12 [Compound 144]
2,< 1 µM,CC(C)c1cnn2c(NCc3ccccc3-c3ccc4ccccc4n3)nc(N3CCC(N)CC3)nc12 [Compound 48]

# Test system: HCT116
# Test: Cellular HCT116 viability assay (CellTiter-Glo, 72 hours)
# Assay type: cell-based
# Conditions: Homo sapiens, HCT-116
# How it was run: as §3
row,IC50,SMILES
1,< 1 µM,CC(C)c1cnn2c(NCc3ccccc3-c3cc4cccc(NC(=O)C5CC5)c4[nH]3)nc(N3CCC(N)CC3)nc12 [Compound 144]
2,< 1 µM,CC(C)c1cnn2c(NCc3ccccc3-c3ccc4ccccc4n3)nc(N3CCC(N)CC3)nc12 [Compound 48]
3,< 1 µM,CC(C)c1cnn2c(NCc3ccccc3-c3ccc4ccccc4n3)nc(N3CCC(O)(CN)CC3)nc12 [Compound 219]
4,< 1 µM,CC(C)c1cnn2c(N[C@@H](C)c3ccccc3-n3cc4ccccc4n3)nc(N3CCC(N)CC3)nc12 [Compound 183]

# Biological target: T4, CDK2/Cyclin A (Homo sapiens, UniProt P24941)
# T4 construct: purchased Invitrogen PV6290
# Test: Enzymatic assay for CDK2 (FRET based LANCE Ultra kinase assay)
# Assay type: biochemical
# Conditions: read-out: CDK2 enzymatic activity (IC50 range)
# How it was run: as §1
row,IC50,SMILES
1,0.1 to 1 µM,CC(C)c1cnn2c(NCc3ccccc3-c3cc4cccc(NC(=O)C5CC5)c4[nH]3)nc(N3CCC(N)CC3)nc12 [Compound 144]
2,> 1 µM,CC(C)c1cnn2c(NCc3ccccc3-c3ccc4ccccc4n3)nc(N3CCC(N)CC3)nc12 [Compound 48]
3,> 1 µM,CC(C)c1cnn2c(NCc3ccccc3-c3ccc4ccccc4n3)nc(N3CCC(O)(CN)CC3)nc12 [Compound 219]
4,> 1 µM,CC(C)c1cnn2c(N[C@@H](C)c3ccccc3-n3cc4ccccc4n3)nc(N3CCC(N)CC3)nc12 [Compound 183]
